Consider seven compounds from PubChem BioAssay (NCI).

Among the test systems are A549 NSCLC; EKVX NSCLC; HL-60(TB) leukemia; HOP-92 NSCLC; MDA-MB-231 breast; MDA-MB-435; NCI/ADR-RES ovarian; OVCAR-3 ovarian; SF-268 CNS; SK-MEL-5 melanoma.
Holding throughout (test): NCI tumour cell line growth inhibition, 48 h

SMILES strings stand for the structures.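 Results reflect a 48-hour exposure of cells in 96-well plates to compound at five concentrations. Abbreviation: GI50, concentration required for 50% inhibition of growth. TGI marks complete inhibition of growth.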

On to `Cc1ccc(C(SCC(N)C(=O)O)(c2ccc(C)cc2)c2ccc(C)cc2)cc1` (stereo not given), for which the GI50 was 2.62 µM in the assay with A549 NSCLC; 4.32 µM in the assay with EKVX NSCLC; 2.53 µM in the assay on HL-60(TB) leukemia; 2.87 µM with HOP-92 NSCLC; 1.93 µM in the assay with MDA-MB-231 breast; 0.337 µM with MDA-MB-435. The GI50 in the assay with NCI/ADR-RES ovarian is 15 µM; in the assay with OVCAR-3 ovarian, 2.22 µM; in the assay with SF-268 CNS, 1.89 µM; in the assay on SK-MEL-5 melanoma it was 0.907 µM. Moreover, the TGI with A549 NSCLC was 16.8 µM; in the assay on EKVX NSCLC, 39.4 µM; in the assay on HL-60(TB) leukemia it was 8.09 µM; in the assay with HOP-92 NSCLC, 17.5 µM; in the assay on MDA-MB-231 breast, 7.77 µM; in the assay with MDA-MB-435, 1.16 µM. Besides, the TGI stood at 53.7 µM in the assay on NCI/ADR-RES ovarian, 7.39 µM with OVCAR-3 ovarian, 19.5 µM with SF-268 CNS and 14.7 µM in the assay with SK-MEL-5 melanoma.
For `CCCCCCCCCCCCCC1=NCCN1CCO`, the GI50 was 3.52 µM with A549 NSCLC; 8.35 µM with EKVX NSCLC; 3.11 µM with HL-60(TB) leukemia; 3.65 µM in the assay on HOP-92 NSCLC; 3.04 µM in the assay with MDA-MB-231 breast; 2.97 µM in the assay on MDA-MB-435. The GI50 in the assay with NCI/ADR-RES ovarian was 5 µM; with OVCAR-3 ovarian, 2.73 µM; in the assay on SF-268 CNS, 2.83 µM; with SK-MEL-5 melanoma, 3.26 µM. Besides, the TGI in the assay with A549 NSCLC is more than 100 µM; with EKVX NSCLC it was 28.4 µM; with HL-60(TB) leukemia, more than 100 µM; in the assay on HOP-92 NSCLC it was 23.6 µM; in the assay on MDA-MB-231 breast, 8.28 µM; with MDA-MB-435 it was 9.07 µM. In addition, the TGI with NCI/ADR-RES ovarian amounted to 21.2 µM; in the assay with OVCAR-3 ovarian, 6.48 µM; with SF-268 CNS, 8.12 µM; with SK-MEL-5 melanoma it was 11.2 µM.
Take `CN(Cc1cc(Br)cc(Br)c1O)Cc1cc(Br)cc(Br)c1O`: the GI50 with A549 NSCLC was 2.19 µM; with EKVX NSCLC it was 3.03 µM; in the assay with HL-60(TB) leukemia, 1.08 µM; with HOP-92 NSCLC it was 1.42 µM; with MDA-MB-231 breast it was 3.26 µM; in the assay on MDA-MB-435 it was 3.79 µM. Also, the GI50 with NCI/ADR-RES ovarian is 1.83 µM; in the assay on OVCAR-3 ovarian it was 1.42 µM; in the assay on SF-268 CNS, 2.87 µM; with SK-MEL-5 melanoma, 1.34 µM. Besides, the TGI stood at 15.4 µM in the assay with A549 NSCLC; 20.2 µM in the assay with EKVX NSCLC; 10.9 µM in the assay with HL-60(TB) leukemia; 8.87 µM in the assay with HOP-92 NSCLC; 19.6 µM in the assay on MDA-MB-231 breast; 22.6 µM in the assay with MDA-MB-435. For the same compound, the TGI in the assay with NCI/ADR-RES ovarian was found to be 12.6 µM; in the assay on OVCAR-3 ovarian, 11.2 µM; in the assay with SF-268 CNS it was 21.1 µM; in the assay on SK-MEL-5 melanoma, 3.71 µM.
Turning to `COC(=O)[C@]12CC[C@@H](C)[C@H](C)[C@@H]1C1=CC[C@@H]3[C@@]4(C)C(C=O)=C[C@@](C)(COC(C)=O)C4=CC[C@@]3(C)[C@]1(C)CC2`, the GI50 with A549 NSCLC was 3.82 µM; in the assay on EKVX NSCLC, 4.13 µM; in the assay on HL-60(TB) leukemia it was 2.68 µM; in the assay on HOP-92 NSCLC it was 2.63 µM; in the assay with MDA-MB-231 breast, 5.74 µM; in the assay with MDA-MB-435 it was 4.28 µM. Besides, the GI50 with NCI/ADR-RES ovarian was 5.35 µM; in the assay on OVCAR-3 ovarian, 3.54 µM; in the assay on SF-268 CNS, 4.38 µM; with SK-MEL-5 melanoma it was 10.5 µM. For the same compound, the TGI with A549 NSCLC stood at 16.2 µM; in the assay with EKVX NSCLC, 16.1 µM; in the assay on HL-60(TB) leukemia, 6.49 µM; in the assay with HOP-92 NSCLC, 16.3 µM; with MDA-MB-231 breast, 23.5 µM; in the assay with MDA-MB-435, 16.4 µM. The TGI with NCI/ADR-RES ovarian was 18.9 µM; in the assay on OVCAR-3 ovarian it was 12.2 µM; with SF-268 CNS, 17 µM; in the assay with SK-MEL-5 melanoma, 22.6 µM.
Regarding `O=[N+]([O-])c1ccc(Sc2ncnc3nc[nH]c23)c2nonc12`, the GI50 was 29.6 µM in the assay on A549 NSCLC; 18.1 µM with EKVX NSCLC; 2.8 µM in the assay with HL-60(TB) leukemia; 2 µM with HOP-92 NSCLC; 8.15 µM in the assay on MDA-MB-231 breast; 3.04 µM in the assay with MDA-MB-435. The GI50 in the assay with NCI/ADR-RES ovarian is 5.16 µM; with OVCAR-3 ovarian, 0.714 µM; with SF-268 CNS, 5 µM; in the assay with SK-MEL-5 melanoma, 10.2 µM. In addition, the TGI in the assay with A549 NSCLC is more than 100 µM; with EKVX NSCLC, 36.5 µM; in the assay on HL-60(TB) leukemia it was 6.03 µM; with HOP-92 NSCLC it was 22.2 µM; with MDA-MB-231 breast, 24.2 µM; in the assay on MDA-MB-435, 17.1 µM. In addition, the TGI came out at 28.9 µM in the assay on NCI/ADR-RES ovarian, 16.6 µM in the assay with OVCAR-3 ovarian, 19.7 µM in the assay with SF-268 CNS and 22.3 µM with SK-MEL-5 melanoma.
Regarding `COC1CCN(C(=O)c2cc(Cc3n[nH]c(=O)c4ccccc34)ccc2F)CC1`, the GI50 in the assay with A549 NSCLC is 58.9 µM; in the assay with EKVX NSCLC it was more than 100 µM; with HL-60(TB) leukemia, more than 85.3 µM; in the assay on HOP-92 NSCLC, 41.5 µM; in the assay with MDA-MB-231 breast it was more than 100 µM; in the assay on MDA-MB-435, more than 100 µM. In addition, the GI50 in the assay on NCI/ADR-RES ovarian was more than 76.8 µM; with OVCAR-3 ovarian, 74.1 µM; with SF-268 CNS, 58.3 µM; in the assay on SK-MEL-5 melanoma, 32 µM. Besides, the TGI with A549 NSCLC, in the assay on EKVX NSCLC, in the assay on HL-60(TB) leukemia, in the assay on HOP-92 NSCLC, in the assay on MDA-MB-231 breast and in the assay on MDA-MB-435 was more than 100 µM throughout. Besides, the TGI with NCI/ADR-RES ovarian, in the assay on OVCAR-3 ovarian, in the assay on SF-268 CNS and with SK-MEL-5 melanoma was more than 100 µM each time.
Turning to `CS(=O)(=O)Nc1ccc(-c2cc(-c3ccccc3)cc(C(N)=O)c2N)cc1`, the GI50 is 20.2 µM in the assay on A549 NSCLC; more than 25 µM in the assay with EKVX NSCLC; more than 23.4 µM with HL-60(TB) leukemia; 8.9 µM with HOP-92 NSCLC; more than 25 µM in the assay on MDA-MB-231 breast; more than 25 µM in the assay on MDA-MB-435. Further, the GI50 with NCI/ADR-RES ovarian was more than 25 µM; with OVCAR-3 ovarian, more than 23.8 µM; in the assay on SF-268 CNS, more than 25 µM; in the assay on SK-MEL-5 melanoma it was 15.6 µM. The TGI in the assay on A549 NSCLC, with EKVX NSCLC, in the assay on HL-60(TB) leukemia, in the assay on HOP-92 NSCLC, in the assay on MDA-MB-231 breast and with MDA-MB-435 was more than 25 µM throughout. The TGI in the assay with NCI/ADR-RES ovarian, in the assay with OVCAR-3 ovarian, in the assay on SF-268 CNS and in the assay on SK-MEL-5 melanoma was more than 25 µM each time.
